# Results reported in US20240366565A1, “Use of Verteporfin to Modulate Wound Healing After an Ocular Surgical Procedure or Ocular Injury” (The Board of Trustees of the Leland Stanford Junior …, priority 2021, published 2024).
# Assays:
# [1] = test system: corneal scarring after anterior lamellar keratectomy; experiment: Rat model of corneal injury (anterior lamellar keratectomy); assay type: in vivo; settings: ALK cut depth around 50%, 10 μg/mL in Provisc gel subconjunctivally on Day 0, read at day 3, versus untreated eyes
# Experimental: FIG. 6. Efficacy of verteporfin in reducing corneal scarring. Anterior lamellar keratectomy (ALK) with a cut depth of around 50% was performed in a rat model of corneal injury. 10 μg/mL verteporfin (in Provisc gel) was subconjunctivally injected after ALK on Day 0.
# Anterior lamellar keratectomy (ALK) with a cut depth of around 50% was performed in a rat model of corneal injury. 10 μg/mL verteporfin (in Provisc gel) was subconjunctivally injected after ALK on Day 0.
# hMSCs = experiment: Live/dead cytotoxicity test in hMSCs; assay type: cell-based, human; settings: 1 μg/mL and 10 μg/mL, 24 hours
# Experimental: FIG. 4. Verteporfin is not cytotoxic to hMSCs. The hMSCs were treated with verteporfin at concentrations of 1 μg/mL and 10 μg/mL for 24 hours. Cells were treated with 10% DMSO for 40 minutes. The next day, the live/dead solution was added to the cells.
# The hMSCs were treated with verteporfin at concentrations of 1 μg/mL and 10 μg/mL for 24 hours. Cells were treated with 10% DMSO for 40 minutes. The next day, the live/dead solution was added to the cells.
# [2] = test system: bleb survival after glaucoma filtration surgery; experiment: Rabbit model of glaucoma filtration surgery; assay type: in vivo, New Zealand White rabbits; settings: subconjunctival injection into the bleb after surgery, various concentrations, versus BSS control eye
# Experimental: FIGS. 5A-5B. Efficacy of verteporfin in reducing scarring and increasing bleb survival. The efficacy of verteporfin in reducing scarring and increasing bleb survival was evaluated in a rabbit model of glaucoma filtration surgery. Glaucoma filtration surgery was performed in both eyes of New Zealand White rabbits. In one eye, various concentrations of verteporfin or Mitomycin C was injected subconjunctivally into the bleb after surgery. In the contralateral eye, BSS was injected after surgery as a control. Bleb appearance and survival were evaluated postoperatively at least twice a week. Bleb survival was the primary endpoint. […] There were no post-surgical complications in all groups, including corneal edema, bleb leak, anterior chamber inflammation, iris involvement, cataract or infection (FIG. 5B).
# The efficacy of verteporfin in reducing scarring and increasing bleb survival was evaluated in a rabbit model of glaucoma filtration surgery. Glaucoma filtration surgery was performed in both eyes of New Zealand White rabbits. In one eye, various concentrations of verteporfin or Mitomycin C was injected subconjunctivally into the bleb after surgery. In the contralateral eye, BSS was injected after surgery as a control. Bleb appearance and survival were evaluated postoperatively at least twice a week. Bleb survival was the primary endpoint.
# [3] = test system: ki67 (Mki67) expression in hMSCs; experiment: qPCR of ki67 expression in hMSCs; assay type: cell-based, human; settings: Verteporfin 1 μg/mL and 10 μg/mL, 24 hours
# Experimental: FIG. 3. […] The hMSCs were cultured on plates. The next day, the treatments were added in duplicate: Verteporfin 1 μg/mL, Verteporfin 10 μg/mL, DMSO, and cells without treatment. After 24 hours, the medium was removed, the wells were washed with PBS and then the RNA of the cells were extracted using Trizol and Quiagen kit. qPCR was performed.
# The hMSCs were cultured on plates. The next day, the treatments were added in duplicate: Verteporfin 1 μg/mL, Verteporfin 10 μg/mL, DMSO, and cells without treatment. After 24 hours, the medium was removed, the wells were washed with PBS and then the RNA of the cells were extracted using Trizol and Quiagen kit. qPCR was performed.
# [4] = test system: alpha smooth muscle actin (ASMA) in hMSCs; experiment: Immunostaining of alpha smooth muscle actin in hMSCs; assay type: cell-based, human; settings: 10 ng/ml TGFB-1 with or without verteporfin, 24 hours
# Experimental: FIG. 2. Results of immunostaining alpha smooth muscle actin in hMSCs. The hMSCs, were treated with 10 ng/ml TGFB-1 with or without verteporfin and DMSO for 24 hours. The next day, the cells were fixed and stained for alpha smooth muscle actin (ASMA).
# The hMSCs, treated with 10 ng/ml TGFB-1 with or without verteporfin and DMSO for 24 hours, were fixed and stained for alpha smooth muscle actin (ASMA) the next day.
# skin wounds = settings: cited from earlier work
# [5] = test system: α-smooth muscle actin (α-SMA, ACTA-2) expression in hMSCs; experiment: qPCR of α-smooth muscle actin expression in TGFB-1 treated hMSCs; assay type: cell-based, human
# Experimental: FIG. 1. Verteporfin reduces expression of α-smooth muscle actin in hMSCs. Human mesenchymal stem cells (hMSCs) were plated in culture. The next day, the following treatments were added in duplicate: 1 μg/mL Verteporfin, 10 μg/mL Verteporfin, 10 ng/ml transforming growth factor beta-1 (TGFB-1), 1 μg/mL Verteporfin+10 ng/mL TGFB-1, 10 μg/mL Verteporfin+10 ng/ml TGFB-1, Dimethyl sulfoxide (DMSO), and cells without treatment. After 24 hours, the medium was removed, the wells were washed with PBS and then the RNA of the cells were extracted using Trizol and a Quiagen kit. Quantitative polymerase chain reaction (qPCR) was performed. TGFB-1 activation leads to the differentiation of mesenchymal stem cells into myofibroblasts, inducing expression of α-smooth muscle actin (α-SMA) and the extracellular matrix proteins such as collagen which may lead to scarring.
# Human mesenchymal stem cells (hMSCs) were plated in culture. The next day, the following treatments were added in duplicate: 1 μg/mL Verteporfin, 10 μg/mL Verteporfin, 10 ng/ml transforming growth factor beta-1 (TGFB-1), 1 μg/mL Verteporfin+10 ng/ml TGFB-1, 10 μg/mL Verteporfin+10 ng/ml TGFB-1, Dimethyl sulfoxide (DMSO), and cells without treatment. […] Quantitative polymerase chain reaction (qPCR) was performed.
Substance,corneal scarring [1],cytotoxicity (live/dead) (hMSCs),bleb survival [2],"expression of ki67 (Mki67), marker of cell proliferation (qPCR) [3]",expression of ASMA (immunostaining) [4],"scar formation in skin wounds (skin wounds; mice, injection into skin wounds)",side effects on dosing in the skin (skin wounds; previous animal studies),"expression of alpha-SMA (qPCR) ([5]; 10 ng/ml TGFB-1 + 1 or 10 μg/mL Verteporfin, 24 hours)","expression of alpha-SMA (ACTA-2) (qPCR) ([5]; 10 ng/ml TGFB-1 alone, after 24 hours)"
Verteporfin,reduced corneal scarring,not cytotoxic,trend towards increased survival,did not increase the expression of ki67,reduces the expression of ASMA,prevented scar formation,minimal side effects,statistically reduced the expression of alpha-SMA in a dose dependent manner,
transforming growth factor beta-1 [TGFB-1],,,,,,,,,statistically increased the expression of alpha-SMA
